Measured values as given in patent US20020058708A1, “Compositions containing hypotriglyceridemically active stilbenoids” (priority 2000, published 2002).

Key:
[1] = reported by Arichi et al. 1982; cited from earlier work
[2] = Daily mean food consumption of treated fat fed, STZ treated rats; assay type: in vivo, rat; details: 250 mg/kg q.d.; FIG. 4
Procedure: (§1) FIG. 4 is a line graph showing the mean food consumption (mg) in fat fed, STZ treated rats administered with GELUCIRE™ vehicle only; and 3-hydroxy-4-(3-methyl-2-butenyl)-5-methoxystilbene-2-carboxylic acid (Compound A). -∘- represents vehicle; and -▪- represents Compound A administered at 250 mg/kg q.d. Animals were administered the vehicle and compounds at 24, 48, 72 and 96 h, and serum triglyceride levels were measured at 0, 30, 51, 54, 75 and 80 hours after the oral administration. All data points N=8. *P<0.05 (analysis of variance (ANOVA), one factor).
(§2) Male Sprague Dawley rats arrival from Charles River Laboratories, Hollister, Calif., were fed a high fat (20% by weight) diet (TD 78463) obtained from Harlan Teklad, Madison, Wis., which was stored at 4° C. prior to use. Administration of a high fed diet is a well-known method of inducing hypertriglyceridemia in rats.
(§3) Compound A formulations were prepared fresh daily. The appropriate amount of Compound A in GELUCIRE™ was administered by oral gavage at a volume of 2.5 ml/kg of body weight. Animals were fasted at 8:00 am each day.

[3] = Daily mean body weight of treated fat fed, STZ treated rats; assay type: in vivo, rat; details: 250 mg/kg q.d.; FIG. 3
Procedure: as §1, with “FIG. 3” for “FIG. 4”, “mean body weight” for “mean food consumption”
as §2, §3

[4] = test system: fat fed, STZ treated male Sprague Dawley rats; test: In vivo hypotriglyceridemic activity: serum triglyceride levels in fat-fed STZ treated rats; design: species or system rat; details: 250 mg/kg body weight q.d.
From the text: This example illustrates the effectiveness of the stilbenoids of formula (I) in reducing serum triglyceride levels in fat-fed STZ treated male Sprague Dawley rats, i.e., an art-recognized model of hypertriglyceridemia.
This example illustrates the effectiveness of the stilbenoids of formula (I), e.g. longistyline A-2-carboxylic acid (Compound A) in reducing serum triglyceride levels in fat fed, STZ treated male Sprague Dawley rats, i.e., an art recognized model of hypertriglyceridemia. […]
Blood samples from tail snips bleeds were collected six hours after the dose on day one, and three (3) and six (6) hours after the administration of the dose on days 2 through 4 into M brand (Becton Dickinson, Franklin Lakes, N.J.) serum separator tubes, and centrifuged at 12,000 rpm for 10 minutes. Serum was removed and triglyceride levels were measured using enzymatic […] methods (M. W. McGowan, et al., Clin. Chem. 29, 538 (1983) and P Trinder, Ann. Clin. Biochem. 6, 24 (1969)) using Sigma Diagnostic Kits, Sigma Chemical Company, St. Louis, Mo.
Triglyceride levels are expressed as the mean ±SEM. Data were analyzed by one-way analysis of variance (ANOVA), followed by post-hoc Fisher's protected least squares difference (PLSD) tests. […]

Compound | Serum triglyceride levels [1] | Food intake (daily mean food consumption) [2] | Gain in rat body weight over the course of treatment [3] | Serum triglyceride (TG) levels compared with vehicle only ([4]; oral gavage in GELUCIRE vehicle, at each of the time points, p<0.05, FIG. 2) | Mean TG levels compared with GELUCIRE vehicle treatment group at individual sampling times ([4]; from day 2 through the end of treatment) | Liver lipid levels [1]
OC[C@H]1OC(Oc2c(O)cc(O)cc2C=Cc2ccc(O)cc2)[C@H](O)[C@@H](O)[C@@H]1O (stereo partly drawn) [2,3,5,4′-tetrahydroxy stilbene-2-O-D-glucoside] | reduce |  |  |  |  | 
COc1cc(/C=C/c2ccccc2)c(C(=O)O)c(O)c1CC=C(C)C [Compound A, 3-hydroxy-4-(3-methyl-2-butenyl)-5-methoxystilbene-2-carboxylic acid] |  | not effected by the treatments | normal and similar among the treatment groups | significantly lower | significantly lower | 
OC[C@H]1O[C@@H](Oc2cc(O)cc(/C=C/c3ccc(O)cc3)c2)[C@H](O)[C@@H](O)[C@@H]1O [Piceid, 3,4′,5-trihydroxystilbene-3-O-β-D-glucopyranoside] | lower |  |  |  |  | lower
